biological target: T1, human mGluR2 (Homo sapiens, UniProt Q14416); assay: mGluR2 potentiator assays described herein (FLIPR calcium mobilization in HEK 293 cells expressing chimeric mGluR2/CaR, or [35S]-GTPγS binding with CHO membranes); assay type: cell-based; conditions: active in the assays described herein; which assay (FLIPR or GTPγS) is not stated
T1 construct: fused on or other part: If FLIPR: the intracellular domain of the human calcium receptor (CASR, P41180) in place of mGluR2's own, and the promiscuous chimeric G protein Gaqi5 fused on; If GTPgammaS: nothing
Source text: The pharmacological properties of the compounds of the invention can be analyzed using standard assays for functional activity. Examples of glutamate receptor assays are well known in the art as described in, for example, Aramori et al., 1992, Neuron, 8:757; Tanabe et al., 1992, Neuron, 8:169; Miller et al., 1995, J. Neuroscience, 15:6103; Balazs, et al., 1997, J. Neurochemistry, 1997,69:151. The methodology described in these publications is incorporated herein by reference. Conveniently, the compounds of the invention can be studied by means of an assay that measures the mobilization of intracellular calcium, [Ca^2+]i in cells expressing mGluR2.
Fluorometric Imaging Plate Reader (FLIPR) analysis was used to detect allosteric activators of mGluR2 via calcium mobilization. A clonal HEK 293 cell line expressing a chimeric mGluR2/CaR construct comprising the extracellular and transmembrane domains of human mGluR2 and the intracellular domain of the human calcium receptor, fused to the promiscuous chimeric protein Gaqi5 was used. […] At 24-hours prior to analysis, the cells were trypsinized and plated in DMEM at 100,000 cells/well in black sided, clear-bottom, collagen I coated, 96-well plates. The plates were incubated under 5% CO2 at 37° C. overnight. Cells were loaded with 6 μM fluo-3 acetoxymethylester (Molecular Probes, Eugene Oreg.) for 60 min. at room temperature. All assays were performed in a buffer containing 126 mM NaCl, 5 mM KCl, 1 mM MgCl2, 1 mM CaCl2, 20 mM Hepes, 0.06 μM DCG-IV (a Group II mGluR selective agonist), supplemented with 1.0 mg/ml D-glucose and 1.0 mg/ml BSA fraction IV (pH 7.4).
FLIPR experiments were done using a laser setting of 0.8 W and a 0.4 second CCD camera shutter speed. Extracellular fluo-3 was washed off and cells were maintained in 160 μL of buffer and placed in the FLIPR. An addition of test compound (0.01 μM to 30 μM in duplicate) was made after 10 seconds of baseline fluorescent readings were recorded on FLIPR. Fluorescent signals were then recorded for an additional 75 seconds at which point a second addition of DCG-IV (0.2 μM) was made and fluorescent signals were recorded for an additional 65 seconds. Fluorescent signals were measured as the peak height of the response within the sample period. Data was analyzed using Assay Explorer, and EC50 and Emax values (relative to maximum DCG-IV effect) were calculated using a four parameter logistic equation.
A [^35S]-GTPγS binding assay was used to functionally assay mGluR2 receptor activation. The allosteric activator activity of compounds at the human mGluR2 receptor was measured using a [^35S]-GTPγS binding assay with membranes prepared from CHO cells which stably express the human mGluR2. The assay is based upon the principle that agonists bind to G-protein coupled receptors to stimulate GDP-GTP exchange at the G-protein. Since [^35S]-GTPγS is a non-hydrolyzable GTP analog, it can be used to provide an index of GDP-GTP exchange and, thus, receptor activation. The GTPγS binding assay therefore provides a quantitative measure of receptor activation.
Membranes were prepared from CHO cells stably transfected with human mGluR2. […] The amount of radioactivity bound was determined by counting plates on the Packard TopCount. […]

T1 sequence (Q14416 19-819 limits assumed): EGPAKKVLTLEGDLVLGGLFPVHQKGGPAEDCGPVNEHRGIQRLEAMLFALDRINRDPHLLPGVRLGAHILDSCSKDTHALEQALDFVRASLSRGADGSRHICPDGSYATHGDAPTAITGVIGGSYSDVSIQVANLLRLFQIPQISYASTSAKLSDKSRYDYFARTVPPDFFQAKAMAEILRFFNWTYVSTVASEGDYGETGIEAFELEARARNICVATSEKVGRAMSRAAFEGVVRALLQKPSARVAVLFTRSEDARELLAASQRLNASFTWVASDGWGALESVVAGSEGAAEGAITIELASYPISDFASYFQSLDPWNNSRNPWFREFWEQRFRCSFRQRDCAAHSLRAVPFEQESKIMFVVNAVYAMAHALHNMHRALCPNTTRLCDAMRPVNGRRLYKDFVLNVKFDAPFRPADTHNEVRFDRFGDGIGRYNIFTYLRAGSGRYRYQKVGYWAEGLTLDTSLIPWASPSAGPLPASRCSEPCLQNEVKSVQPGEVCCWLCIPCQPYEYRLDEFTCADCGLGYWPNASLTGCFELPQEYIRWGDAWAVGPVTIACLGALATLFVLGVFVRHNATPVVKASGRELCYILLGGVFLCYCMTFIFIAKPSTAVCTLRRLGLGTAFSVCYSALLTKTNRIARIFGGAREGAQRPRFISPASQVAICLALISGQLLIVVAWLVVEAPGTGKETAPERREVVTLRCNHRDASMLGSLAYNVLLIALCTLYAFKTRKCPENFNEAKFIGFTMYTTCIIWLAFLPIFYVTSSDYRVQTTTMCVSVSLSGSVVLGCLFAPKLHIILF

Compound | EC50 [µM]
CC1CCc2cc(F)cc3nc(CN4CC=C(c5ccc(OC(F)(F)F)cc5)CC4)n1c23 (centres unmarked) [Example 26.65, 8-fluoro-4-methyl-2-{[4-(4-trifluoromethoxyphenyl)-3,6-dihydropyridin-1(2H)-yl]methyl}-5,6-dihydro-4H-imidazo[4,5,1-ij]quinoline] | 0.08
CC1CCc2cc(F)cc3nc(CN4CCC(Oc5ccccc5Cl)CC4)n1c23 (centres unmarked) [Example 26.55, 8-fluoro-4-methyl-2-[4-(2-chlorophenoxy)-piperidin-1-ylmethyl]-5,6-dihydro-4H-imidazo[4,5,1-ij]quinoline] | 0.37
CC1CCc2cc(F)cc3nc(CN4CCN(c5ccc(F)cc5)CC4)n1c23 (centres unmarked) [Example 26.56, 8-fluoro-4-methyl-2-{[4(4-fluorophenyl)piperizin-1-yl]methyl}-5,6-dihydro-4H-imidazo[4,5,1-ij]quinoline] | 1.58

Other lines, results leading:

EC50 [µM] | Compound
0.23 | Fc1ccc(C2CCN(Cc3nc4cccc5c4n3CCO5)CC2)cc1 [Example 26.69]
1.11 | O=C1CCN2C(CN3CCC(c4ccc(F)cc4)CC3)=NC3C=C(F)C=C1C32 (centres unmarked) [Example 28.1, 8-Fluoro-2-[4-(4-fluoro-phenyl)-piperidin-1-ylmethyl]-4,5,9a,9b-tetrahydroimidazo[4,5,1-ij]quinolin-6-one]
